Row | SMILES | melting point [°C]
1 | O=C(O)c1cccn2c(I)cnc12 | 237 to 239
2 | Cc1csc(NC(=O)C2CCNCC2)n1 | 189 to 191
3 | OCc1cc(Cl)c2nccn2c1 | 169 to 171
4 | NC(=O)N1CCc2ccccc21 | 160 to 162
5 | Nc1ccccc1NC(=O)c1ccccc1 | 149 to 151
6 | Nc1cc(-c2cccc(Cl)c2)n[nH]1 | 130 to 132
7 | Cn1cc(C(=O)O)c(C(F)F)n1 | 199 to 201
8 | NC(=NO)c1cccc(Oc2ccccc2)c1 | 66 to 68
9 | Cc1ccccc1C(=O)NC(CC(C)C)C(=O)O (centres undefined) | 111 to 113
10 | Nc1cc(S(=O)(=O)N2CCCCC2)ccc1Cl | 129 to 131
11 | COc1ccc(CC2CC(=O)N2)cc1 (centres undefined) | 97 to 99
12 | O=C1CCCCC(N2C(=O)c3ccccc3C2=O)C1 (centres undefined) | 119 to 121
13 | NNC(=O)c1cc(-c2ccccc2)n[nH]1 | 207 to 209
14 | COCCn1cc(C(=O)O)c2ccccc21 | 123 to 125
15 | Cc1cc2nc(C)c(CCC(=O)O)c(C)n2n1 | 260 to 262
16 | Nc1nc(C=Cc2ccccc2)cs1 | 147 to 149
17 | N#Cc1cc(Br)ccc1N=C=O | 97 to 99
18 | c1n[nH]c2c1CCNC2 | 134 to 136
19 | CS(=O)(=O)N1CCC(CN)CC1 | 63 to 65
20 | Cc1cc(NC(=O)C2CC2)sc1C(=O)O | 184 to 186
21 | O=C(CCl)Nc1ccc(Br)cc1F | 133 to 135
22 | CCOc1ncc(C(=O)O)cc1Cl | 214 to 216
23 | Cc1ccnc(O)c1C(=O)O | 229 to 231
24 | O=C(O)CCCNc1ccccc1[N+](=O)[O-] | 115 to 119

Row | SMILES | melting point [°C]
25 | CCCS(=O)(=O)Nc1cccc(O)c1 | 101 to 103
26 | NC1CCCCC1CO (centres undefined) | 132 to 135
27 | O=C1OCCc2cc3c(=O)[nH]c(=O)[nH]c3nc21 | 380 to 382
28 | CC(C)C(Br)C(=O)Nc1ccccc1C(F)(F)F (centres undefined) | 123 to 125
29 | Cc1cccc2sc(NC(=O)OCC(F)(F)F)nc12 | 220 to 222
30 | Cc1ccc(CNCc2ccc(C)n2C)n1C | 61 to 63
31 | CNC(=O)c1n[nH]c(=O)c2ccccc12 | 283 to 285
32 | O=C(O)C1(Cc2nc3ccccc3s2)CCCCC1 | 170 to 172
33 | Nc1ccc(F)c(NC(=O)C2CC2)c1 | 121 to 123
34 | CCN(CC)S(=O)(=O)c1ccc(N2CCCCC2)c(C(=O)O)c1 | 157 to 159
35 | CN(c1ccc(-c2csc(N)n2)cc1)S(C)(=O)=O | 205 to 207
36 | O=C(O)c1cc2c(c(S(=O)(=O)Cl)c1)CCCC2 | 193 to 195
37 | Cc1ccc(Oc2ccc(N)cc2)nc1 | 90 to 92
38 | CCOC(=O)c1sc2nc(CS(=O)(=O)CC(=O)O)[nH]c(=O)c2c1C | 277 to 279
39 | C=CCNC(=O)NC(C)(C)C(=O)O | 125 to 127
40 | Nc1ccc(CNC(=O)c2ccc(Br)cc2)cc1 | 173 to 175
41 | COc1ccccc1S(=O)(=O)Cl | 115 to 119
42 | CCc1ccc(C(N)C(=O)O)cc1 (centres undefined) | 219 to 221
43 | COc1ccc(C=O)cc1OCc1cccnc1 | 84 to 86
44 | CCOC(=O)c1[nH]c(C)c(C(=O)CCl)c1C | 159 to 161
45 | Cc1ccc(C(N)c2cccc(S(C)(=O)=O)c2)cc1 (centres undefined) | 73 to 75
46 | COc1ccnc(CO)c1 | 70 to 72
47 | COCCN1C(=O)c2ccc(C(=O)O)cc2S1(=O)=O | 151 to 153
48 | Nc1cc([N+](=O)[O-])ccc1Nc1ccc(F)cc1 | 162 to 164

Row | SMILES | melting point [°C]
49 | Cc1nc(N)n(-c2ccc(C#N)cc2)n1 | 270 to 272
50 | NC(=O)C1CCCN(Cc2ccccc2N)C1 (centres undefined) | 133 to 135
51 | ON=Cc1ccc(OCc2ccccc2)cc1 | 109 to 111
52 | O=C(O)C1CCCN(c2ncnc3sccc23)C1 (centres undefined) | 214 to 216
53 | O=C1C(Br)CCCN1c1ccc(OC(F)F)cc1 (centres undefined) | 72 to 74
54 | CN(C)S(=O)(=O)c1ccnc(N)c1 | 148 to 150
55 | CC(Cl)C(=O)Nc1c(Cl)cccc1Cl (centres undefined) | 144 to 146
56 | O=c1[nH]c2ccccc2c(O)c1[N+](=O)[O-] | 209 to 211
57 | Cc1sc2ncn(CCC(=O)O)c(=O)c2c1C | 194 to 196
58 | OCCNc1ncccn1 | 76 to 78
59 | NNC1=NC(=O)C(=O)N1 | 144 to 146
60 | CC(C)Oc1ccc(-c2csc(N)n2)cc1 | 191 to 193
61 | Nc1onc(C2CCC2)c1-c1ccc2c(c1)OCO2 | 96 to 98
62 | CC(C)(C)c1nc(=N)s[nH]1 | 160 to 162
63 | Cc1nc2c(C(N)=O)cnn2c(C)c1CCC(=O)O | 282 to 284
64 | OC1CN(c2ccc(C(F)(F)F)cn2)C1 | 136 to 138
65 | Cc1cc(=O)n2nc(N)[nH]c2n1 | 367 to 369
66 | COc1ccc(C(C)(C)O)c(OCc2ccccc2)c1 | 47 to 49
67 | CN1C(=O)CCc2cc(N)ccc21 | 101 to 103
68 | O=C(O)c1ccc(OCC(F)(F)C(F)F)nc1 | 143 to 145
69 | Cc1cc(C)c(S(=O)(=O)Cl)c(C)c1NS(C)(=O)=O | 175 to 177
70 | Oc1ccc(OC2CCCC2)cc1 | 50 to 52
71 | Cc1cc(C(=O)O)nn1-c1ccc(F)cc1F | 221 to 223
72 | OCC1CN(Cc2ccccc2)CC1CO (centres undefined) | 94 to 96

Row | SMILES | melting point [°C]
73 | NC(=S)N1CCSCC1 | 157 to 159
74 | O=C(O)CCNS(=O)(=O)c1cccc(Br)c1 | 146 to 148
75 | Nc1cc(-c2cccs2)no1 | 91 to 93
76 | O=C(O)Cc1cnn(-c2ccccc2)c1 | 107 to 109
77 | Nc1cc(Cl)ccc1NCc1ccccc1 | 77 to 81
78 | O=c1[nH]c2ccc(NCc3cccc(Cl)c3)cc2[nH]1 | 217 to 219
79 | NC1(c2nn[nH]n2)CCCC1 | 229 to 231
80 | CCCOc1cc2c(cc1OCCC)CCNCC2 | 61 to 63
81 | Cc1ccc2cc(C(=O)O)[nH]c2c1 | 209 to 211
82 | Cc1ccc([N+](=O)[O-])cc1S(=O)(=O)N1CCC(C(=O)O)CC1 | 107 to 109
83 | NS(=O)(=O)c1cccc(NC(=O)c2ccc(C(=O)O)s2)c1 | 308 to 310
84 | O=C1CCCc2cc[nH]c21 | 94 to 96
85 | CC(C)(C)OC(=O)NC1CCN(Cc2cc(Cl)cc(Cl)c2)CC1 | 145 to 147
86 | Clc1ncc(-c2ccccc2)s1 | 40 to 42
87 | NC(=O)c1ccc(I)cc1 | 216 to 218
88 | NC(=O)C1CCN(CCc2ccc(N)cc2)CC1 | 223 to 225
89 | CC(C)Cn1c(N)c(C=O)c(=O)n(C)c1=O | 192 to 194
90 | Cc1cc(=O)c(C(=O)O)nn1-c1ccccc1[N+](=O)[O-] | 240 to 242
91 | COc1ccc(CC#N)cc1[N+](=O)[O-] | 84 to 86
92 | COCCn1nc(C)c(C(C)=O)c1C | 31 to 33
93 | O=C(CCCl)NCC(=O)c1ccccc1 | 120 to 122
94 | O=C(O)CCCSc1ccccc1 | 66 to 68
95 | C=CCNc1nc2c(s1)CCCC2 | 77 to 79
96 | Nc1ccc(NC(=O)c2ccc(F)cc2)cc1C(F)(F)F | 120 to 122

Row | SMILES | melting point [°C]
97 | Sc1nc2ccccc2nc1S | 345 to 347
98 | O=C1COc2cc(Br)c(S(=O)(=O)Cl)cc2N1 | 211 to 213
99 | NC1=NN(c2ccccc2)CC1 | 168 to 170
100 | CCCCNS(=O)(=O)c1ccc(N)c(N)c1 | 48 to 52
101 | O=C(CCl)c1ccc(CC(=O)N2CCOCC2)s1 | 136 to 138
102 | N#Cc1cnc2ccccn12 | 154 to 156
103 | CC(C)(CN)C(N)=O | 72 to 74
104 | Nc1nnns1 | 120 to 122
105 | Cn1c(S)nnc1Cc1cccs1 | 157 to 161
106 | CNC(=O)CS(=O)(=O)c1ccc(C(=O)O)cc1 | 249 to 251
107 | O=C(NCc1ccco1)OCC(F)(F)F | 35 to 37
108 | CC(C)n1c(S)nnc1N(C)C | 127 to 129
109 | CS(=O)(=O)c1ccc(Cl)c(C(=O)O)c1 | 183 to 185
110 | CC(O)(C(=O)O)c1cccc2ccccc12 (centres undefined) | 145 to 147
111 | Clc1ccc(Br)c2ccccc12 | 62 to 64
112 | CC(C)n1[nH]c(-c2ccccc2)cc1=N | 83 to 85
113 | Cc1cc(NC(=O)C(C)Cl)ccc1Br (centres undefined) | 149 to 151
114 | O=C(O)CNC(=O)NCc1cccc([N+](=O)[O-])c1 | 153 to 155
115 | O=c1[nH][nH]c2cccc(Cl)c12 | 247 to 249
116 | O=C(c1ccc(F)cc1)c1ccc(C(F)(F)F)cc1 | 100 to 102
117 | CC(C)(C)OC(=O)N1CCC(C(=O)O)(C(=O)O)C1 | 131 to 133
118 | NC(=O)C1CCCN(c2ccc(N)cn2)C1 (centres undefined) | 168 to 170
119 | CC(C)Oc1ccc([N+](=O)[O-])c(C(=O)O)c1 | 135 to 137
120 | CN(C)CC(N)=NO | 135 to 137

Row | SMILES | melting point [°C]
121 | Cc1cc(Br)c(O)c([N+](=O)[O-])c1 | 84 to 86
122 | NC(=O)c1nnn(-c2ccccc2)c1N | 160 to 162
123 | O=c1[nH]c(-c2ccccc2F)cs1 | 187 to 189
124 | N#Cc1cccc(OCC(=O)NC2CC2)c1 | 106 to 108
125 | Clc1ncnc2c1CCC2 | 39 to 41
126 | O=C(O)c1ccc(OCC2CCCO2)cc1 (centres undefined) | 130 to 132
127 | Cc1ccc2c(c1C)OCCCC2=O | 50 to 52
128 | CC(C)NS(=O)(=O)c1ccc(C(=O)O)cc1 | 225 to 227
129 | CCC1CCc2[nH]c(=O)sc2C1 (centres undefined) | 144 to 146
130 | NC(=S)c1cccc(S(=O)(=O)NC2CCCCCCC2)c1 | 124 to 126
131 | O=C(O)c1cc([N+](=O)[O-])c(F)cc1I | 158 to 160
132 | Nc1ccc(C(=O)N2CCc3ccccc32)cc1 | 185 to 187
133 | O=C(O)C1CC(=O)N(c2ccc3c(c2)OCCO3)C1 (centres undefined) | 221 to 223
134 | Nc1ncnc2sc3c(c12)CCCC3 | 239 to 241
135 | NCC(O)c1cc2ccccc2s1 (centres undefined) | 128 to 130
136 | O=C1NCC2(CCCC2)O1 | 89 to 91
137 | O=C(O)CCN1C(=O)C2C3CCC(O3)C2C1=O (centres undefined) | 185 to 187
138 | N#CCCN(C(=O)CCC(=O)O)c1ccccc1 | 98 to 100
139 | Sc1nc(-c2ccc3c(c2)OCCO3)n[nH]1 | 282 to 284
140 | Cc1nc(COc2ccc(C=O)cc2)cs1 | 46 to 48
141 | COCCOC(=O)c1c(C)[nH]c(C(=O)O)c1C | 177 to 179
142 | CC1CCN(Cc2ccc(N)cc2)CC1 | 61 to 63
143 | O=C(O)c1ccc(OC2CCCC2)nc1 | 165 to 167
144 | NCC(O)COc1ccc2c(c1)CCC(=O)N2 (centres undefined) | 103 to 105

— a melting point compilation (Tetko et al.)
